Assay results as given in patent US10662193B2, “Carbazole and carboline compounds for use in the diagnosis, treatment, alleviation or prevention of disorders associated with amyloid or amyloid-like proteins” (AC IMMUNE SA, priority 2014, dated 2020).

Legend:
[1] = tested on: amyloid-beta; experiment: Autoradiography on human brain sections with an 18F amyloid binding compound (selectivity); conditions: FIG. 13
Description: 18 micron thick frozen human brain slices and 6 micron thick human FFPE brain slices from the frontal and/or temporal lobes of AD patients were examined via autoradiography. Brain sections were equilibrated for at least 1 h in 1×PBS solution prior to use in the experiment. Each brain section was covered with a solution of the F-18 labeled tracer (200 Bq/μl, 500 μl) in 1×PBS. For blocking experiments with the corresponding 19F-labeled compound, an excess of the blocking compound was mixed with the 18F-compound to yield an end concentration of 10 μM. The brain sections were allowed to incubate with the tracer solution at room temperature for 1 h, drained afterwards and placed in a slide holder. The slides were then washed sequentially with 1×PBS for 1 min; 70% EtOH in 1×PBS for 2 min; 30% EtOH in 1×PBS for 2 min; and 1×PBS for 1 min. The slides were allowed to air-dry before being placed on Fuji imaging plates for overnight exposure. The imaging plates were scanned and the signal was measured using Fuji software to produce an autoradiographic image of the brain section. Representative examples of autoradiography studies with ^18F-178, ^18F-189, ^18F-161, ^18F-95, ^18F-168, ^18F-146, ^18F-156, ^18F-159 are shown in FIGS. 9 to 12. […] Additionally, selectivity was determined by using a tracer binding to amyloid-beta.

[2] = tested on: tau tangles/Aβ plaques on AD brain sections; experiment: Assay 1: direct staining of human Alzheimer's disease brain sections (fluorescence); type: binding; conditions: 100 μM; FIG. 1
Outline: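 Frozen […] amygdala sections from Braak V-VI AD donors, PFA-fixed, incubated with compound at 100 μM in 50% ethanol for 20 min at room temperature in the dark. Sudan Black quenched autofluorescence, then staining detected by fluorescence microscopy.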

[3] = target: AD brain-enriched PHF (Homo sapiens, UniProt P10636); experiment: Assay 2 (filter trap): radio-binding assay, determination of the dissociation constant (Kd) on PHF; conditions: tritiated ligand 1.25-50 nM, PHF diluted 1/80, 45 min 37° C.
AD brain-enriched PHF, sequence (P10636 623-708 limits assumed): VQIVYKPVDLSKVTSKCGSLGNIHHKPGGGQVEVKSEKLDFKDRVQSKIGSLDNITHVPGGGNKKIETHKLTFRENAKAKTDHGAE
Description: Enrichment of Paired Helical Filaments (PHF's) from Human Alzheimer's Disease Brain
50 g of frontal lobe tissue from post-mortem brain of an Alzheimer's disease (AD) patient were obtained from the London Tissue Bank. The patient was a […] and died […]. The brain sample was collected 5 hours post-mortem and characterized for Braak disease stage (Braak, H.; Braak, E. Acta Neuropathol., 1991, 82, 239-259) as stage VI. […]
AD brain-enriched PHF were diluted 1/80 (with an estimated tau concentration of 62.5 ng/ml and incubated with [^3H]RefA at different concentrations ranging from 50 nM to 1.25 nM. The reaction was performed in a final volume of 70 μL PBS with 2.8% DMSO, for 45 min at 37° C. 30 μL of samples in duplicates were then filtered under vacuum on a GF/B filter plate (PerkinElmer 6005177) to trap the PHF with the bound radio-ligand, and washed three times with PBS. The GF/B filters were then vacuum-dried, 20 μL scintillation liquid (PerkinElmer 1200-436) was added in each well, and the filters were analyzed on a Microbeta Trilux device. […] Specific binding was calculated by subtracting the non-specific signal to the total signal. […] The Kd values were calculated by nonlinear regression, one site specific binding using Prism V5 (GraphPad). […]

[4] = target: T1, in vitro aggregated Abeta1-42 (Homo sapiens, UniProt P05067); experiment: Assay 2 (filter trap): [3H]RefA radio-binding assay, Kd on aggregated Abeta1-42; conditions: Table 23; aggregated Abeta1-42 versus AD brain-enriched PHF
T1 construct: Abeta1-42 (Bachem, Switzerland) peptide films were re-suspended in 1% DMSO; purchased Bachem, Switzerland
T1 sequence (P05067 672-713 limits assumed): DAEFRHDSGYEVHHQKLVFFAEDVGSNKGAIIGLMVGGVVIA
Description: Preparation of Full-Length Tau and Abeta1-42 Aggregates
Recombinant human full-length Tau441 (flTau) was expressed in bacteria and purified in the laboratory of Professor Hilal Lashuel (EPFL, Switzerland). A solution of 8 μM (400 μg/mL) flTau in PBS, 10 μM DTT and 5 μM heparin (all from Sigma-Aldrich) was gently mixed (cradled) for 3 days at 37° C. Cradled flTau aggregates were used at a final concentration of 20 μg/mL in all binding assays. Abeta1-42 (Bachem, Switzerland) peptide films were re-suspended in 1% DMSO and diluted in PBS to a 33 μM (150 μg/mL) suspension that was sonicated until complete dissolution. Aggregation process was done at 37° C. for 24 hours. […]
AD brain-enriched PHF were diluted 1/80 (with an estimated tau concentration of 62.5 ng/ml and incubated with [^3H]RefA at different concentrations ranging from 50 nM to 1.25 nM. The reaction was performed in a final volume of 70 μL PBS with 2.8% DMSO, for 45 min at 37° C. 30 μL of samples in duplicates were then filtered under vacuum on a GF/B filter plate (PerkinElmer 6005177) to trap the PHF with the bound radio-ligand, and washed three times with PBS. The GF/B filters were then vacuum-dried, 20 μL scintillation liquid (PerkinElmer 1200-436) was added in each well, and the filters were analyzed on a Microbeta Trilux device. […] Specific binding was calculated by subtracting the non-specific signal to the total signal. […]

SMILES	competition with ^18F amyloid binding compound [1]	direct staining of tau tangles on AD brain section [2]	Kd [3]	Fold increase on Abeta1-42 vs PHF [4]
Cn1c2ccncc2c2ccc(Nc3cccc(OCC[18F])c3)nc21 [^18F-44]	no competition	–	–	–
Cn1c2ccncc2c2ccc(Nc3cncc(OCC[18F])c3)nc21 [^18F-59]	no competition	–	–	–
CNc1ccc(-c2ccc3ccc(O)cc3n2)cc1 [RefA]	–	direct staining of tau tangles	35 nM	5
